Data taken from ChEMBL document CHEMBL4732103, “Development of Indoleamine 2,3-Dioxygenase 1 Inhibitors for Cancer Therapy and Beyond: A Recent Perspective” (J Med Chem, 2020).
One block for each molecule: values may come before it.

How the values were obtained:
[1] = biological target: T1, Indoleamine 2,3-dioxygenase 1 (Homo sapiens, UniProt P14902); assay: Inhibition of human IDO1
[2] = biological target: T1, Indoleamine 2,3-dioxygenase 1; assay: Inhibition of human N-terminal His-tagged IDO1 expressed in Escherichia coli M15 incubated for 1 hr by UV-Vis spectrophotometric method
[3] = biological target: T1, Indoleamine 2,3-dioxygenase 1; assay: Inhibition of human IDO1 in IFN-stimulated human MDA-MB-231 cells preincubated for 48 hrs followed by L-tryptophan addition and measured after 5 hrs by UV-Vis spectrophotometric method; format: cell-based
[4] = biological target: T1, Indoleamine 2,3-dioxygenase 1; assay: Inhibition of IDO1 in IFN-gamma stimulated human HeLa cells assessed as effect on kynurenine level incubated for 48 hrs by p-dimethylaminobenzaldehyde based assay
[5] = biological target: T1, Indoleamine 2,3-dioxygenase 1; assay: Inhibition of human 6His/FLAG-tagged/Avi/TEV-fused IDO1 expressed in Escherichia coli by absorbance method
[6] = biological target: T1, Indoleamine 2,3-dioxygenase 1; assay: Inhibition of IDO1 in IFN-gamma stimulated human HeLa cells assessed as effect on KYN level incubated for 48 hrs by rapidfire-mass spectrometry
[7] = biological target: T1, Indoleamine 2,3-dioxygenase 1; assay: Inhibition of IDO1 in IFN-gamma stimulated human HeLa cells
[8] = biological target: T1, Indoleamine 2,3-dioxygenase 1; assay: Inhibition of human His6-tagged IDO1 expressed in Escherichia coli BL21 incubated for 90 mins using L-tryptophan as substrate by fluorescence assay
[9] = Inhibition of IDO1/TDO2 in human BT-549 cells assessed as suppression of kynurenine using L-tryptophan as substrate for 18 hrs by 4-(dimethylamino)benzaldehyde based absorbance method; format: cell-based; conditions: BT-549, 18 h
[10] = biological target: T1, Indoleamine 2,3-dioxygenase 1; assay: Inhibition of IDO1 in human SK-OV-3 cells assessed as effect on KYN level using L-tryptophan as substrate incubated for 18 hrs by 4-(dimethylamino)benzaldehyde based absorbance method; format: cell-based
[11] = biological target: Tryptophan 2,3-dioxygenase (Homo sapiens, UniProt P48775); assay: Inhibition of recombinant human TDO expressed in Escherichia coli Rosetta (DE3) pLysS incubated for 20 mins by Dixon plot analysis
[12] = biological target: T1, Indoleamine 2,3-dioxygenase 1; assay: Inhibition of recombinant human IDO1 expressed in Escherichia coli BL21(DE3) incubated for 15 mins by Dixon plot analysis
[13] = biological target: T1, Indoleamine 2,3-dioxygenase 1; assay: Binding affinity to recombinant human IDO1 expressed in Escherichia coli BL21 incubated for 4 hrs by UV-Visible Spectroscopy
[14] = biological target: T1, Indoleamine 2,3-dioxygenase 1; assay: Inhibition of IDO1 in human HeLa cells; format: cell-based
[15] = tested on: HEK-293T; assay: Cytotoxicity against HEK293T cells; format: cell-based; conditions: Homo sapiens
[16] = biological target: T1, Indoleamine 2,3-dioxygenase 1; assay: Inhibition of IDO1 in IFN-gamma stimulated human HeLa cells centrifuged for 10 mins
[17] = biological target: T1, Indoleamine 2,3-dioxygenase 1; assay: Inhibition of human IDO1 using D-Trp as substrate by absorbance method
[18] = biological target: T1, Indoleamine 2,3-dioxygenase 1; assay: Inhibition of human IDO1 incubated for 60 mins using L-tryptophan as substrate by absorbance method
[19] = biological target: T1, Indoleamine 2,3-dioxygenase 1; assay: Inhibition of IDO1 (unknown origin) by cell-based assay
[20] = biological target: T1, Indoleamine 2,3-dioxygenase 1; assay: Inhibition of IDO1 (unknown origin)
[21] = biological target: Protein cereblon/Indoleamine 2,3-dioxygenase 1 (Homo sapiens, UniProt P14902+Q96SW2); assay: Induction of CRBN-mediated IDO1 degradation in IFNgamma-stimulated human HeLa cells incubated for 24 hrs by Western blot analysis
[22] = Cytotoxicity against human HeLa cells incubated for 48 hrs by MTT assay; format: cell-based
[23] = biological target: T1, Indoleamine 2,3-dioxygenase 1; assay: Inhibition of recombinant human IDO1 expressed in Escherichia coli BL21(DE3) assessed as effect on kynurenine level using L-tryptophan as substrate incubated for 1 hr by Ehrlich's reagent based assay
[24] = biological target: Indoleamine 2,3-dioxygenase 1 (Mus musculus, UniProt P28776); assay: Inhibition of mouse IDO1 expressed in mouse P1.HTR cells assessed as inhibition of Kyn production incubated for 16 hrs by HPLC analysis; format: cell-based
Sequence of Indoleamine 2,3-dioxygenase 1 (Mus musculus, UniProt P28776) (P28776 whole entry): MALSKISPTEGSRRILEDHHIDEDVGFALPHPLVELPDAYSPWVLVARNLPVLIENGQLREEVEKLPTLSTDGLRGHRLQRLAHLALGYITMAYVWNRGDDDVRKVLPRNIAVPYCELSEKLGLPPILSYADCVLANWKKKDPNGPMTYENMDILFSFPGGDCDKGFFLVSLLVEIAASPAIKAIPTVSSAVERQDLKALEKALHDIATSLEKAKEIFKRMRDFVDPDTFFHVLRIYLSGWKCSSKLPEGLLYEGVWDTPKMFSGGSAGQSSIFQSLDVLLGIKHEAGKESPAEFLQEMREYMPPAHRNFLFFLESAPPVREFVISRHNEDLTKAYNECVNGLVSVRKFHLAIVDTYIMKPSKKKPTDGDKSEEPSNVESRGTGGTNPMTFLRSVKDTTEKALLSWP

T1 sequence (P14902 whole entry): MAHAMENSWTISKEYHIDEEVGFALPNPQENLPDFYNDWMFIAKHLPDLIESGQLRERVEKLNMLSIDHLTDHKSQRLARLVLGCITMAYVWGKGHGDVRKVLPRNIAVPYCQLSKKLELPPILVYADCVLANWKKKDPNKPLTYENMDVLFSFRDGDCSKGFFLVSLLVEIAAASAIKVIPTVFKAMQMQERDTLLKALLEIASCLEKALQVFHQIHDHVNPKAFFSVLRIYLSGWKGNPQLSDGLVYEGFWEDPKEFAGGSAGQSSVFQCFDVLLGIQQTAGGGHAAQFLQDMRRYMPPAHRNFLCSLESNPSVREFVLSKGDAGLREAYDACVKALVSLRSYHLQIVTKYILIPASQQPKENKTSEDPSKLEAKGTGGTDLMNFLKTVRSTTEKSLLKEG
Sequence of Protein cereblon/Indoleamine 2,3-dioxygenase 1 (P14902 whole entry): as above
Sequence of Protein cereblon/Indoleamine 2,3-dioxygenase 1 (Q96SW2 whole entry): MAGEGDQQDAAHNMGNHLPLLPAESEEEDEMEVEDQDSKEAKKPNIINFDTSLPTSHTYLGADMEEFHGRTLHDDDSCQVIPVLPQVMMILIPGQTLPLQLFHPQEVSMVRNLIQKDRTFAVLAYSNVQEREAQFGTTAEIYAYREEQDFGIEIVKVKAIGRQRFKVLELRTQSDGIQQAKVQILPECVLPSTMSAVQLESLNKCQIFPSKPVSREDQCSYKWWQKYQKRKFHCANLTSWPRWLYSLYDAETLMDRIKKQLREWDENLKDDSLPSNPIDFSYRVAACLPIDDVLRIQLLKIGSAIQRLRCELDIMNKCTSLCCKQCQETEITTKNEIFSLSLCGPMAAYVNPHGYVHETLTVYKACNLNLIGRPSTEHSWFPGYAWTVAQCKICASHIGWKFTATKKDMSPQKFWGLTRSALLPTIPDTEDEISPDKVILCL
Sequence of Tryptophan 2,3-dioxygenase (P48775 whole entry): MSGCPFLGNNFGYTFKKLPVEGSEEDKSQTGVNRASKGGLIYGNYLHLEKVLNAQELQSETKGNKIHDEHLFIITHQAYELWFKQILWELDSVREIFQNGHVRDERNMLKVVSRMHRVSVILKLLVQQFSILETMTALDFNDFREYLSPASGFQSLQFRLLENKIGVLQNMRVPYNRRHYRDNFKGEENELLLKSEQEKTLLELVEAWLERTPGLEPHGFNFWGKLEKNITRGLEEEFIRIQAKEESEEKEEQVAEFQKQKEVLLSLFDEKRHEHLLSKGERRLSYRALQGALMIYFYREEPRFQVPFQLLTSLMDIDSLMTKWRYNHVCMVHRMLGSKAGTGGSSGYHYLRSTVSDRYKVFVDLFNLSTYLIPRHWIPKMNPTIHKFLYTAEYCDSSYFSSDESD

- IC50 [1]: 0.001 µM
Compound: O=C1c2nnn(Cc3ccccc3)c2C(=O)c2nnn(Cc3ccccc3)c21

- IC50 [2]: 0.11 µM
- EC50 [3]: 0.074 µM
Compound: NC(=O)c1n[nH]nc1-c1ccc(F)c(F)c1

- IC50 [4]: 1.01 µM
Compound: C=C1OC2=C(C(=O)c3ccccc3C2=O)C1(C)C

- IC50 [5]: 0.039 µM
- IC50 [6]: 0.0059 µM
Compound: CC(C)CN(CC(C)C)c1ccc([C@H](C)CC(=O)O)cc1NCNc1nc(C(F)(F)F)ns1

- IC50 [7]: 1.57 µM
Compound: Nc1nonc1/C(=N/O)N1Cc2ccccc2C1

- IC50 [8]: 3 µM
Compound: O=C(CSc1nnc2scc(-c3ccccc3)n12)Nc1ccc2c(c1)OCO2

- IC50 [9]: 3.42 µM
- IC50 [10]: > 40 µM
Compound: CC1=C(CC(=O)c2sccc2C)C(=O)c2ccccc2C1=O

- Ki [11]: 4 µM
- Ki [12]: 1 µM
Compound: O=C(c1ccccc1)C(c1ccccc1)C1(O)C(=O)Nc2c(Cl)cc(Cl)cc21 (stereo not drawn)

- Kd [13]: 2.3 µM
Compound: Clc1ccc(Nc2cn[nH]n2)cc1

- IC50 [2]: 0.092 µM
- EC50 [3]: 0.074 µM
Compound: NS(=O)(=O)NCCNC(=O)c1n[nH]nc1-c1ccc(F)cc1

- IC50 [1]: 0.13 µM
- IC50 [14]: 11.2 µM
Compound: COC1=C(OC)C(=O)C(Nc2cccc(Br)c2)=CC1=O
- IC50 [15]: 28 µM

- IC50 [16]: 0.0026 µM
Compound: CC(C)CN(c1ccc(-c2c(C(=O)O)ccc3ccccc23)cc1NC(=O)Nc1ccc(Br)cc1F)C1CCCCC1

Compound: O=C(Cc1cccc(N(CCCl)CCCl)c1)NCCNc1nonc1/C(=N/O)Nc1ccc(F)c(Br)c1
- IC50 [17]: 0.13 µM
- EC50 [4]: 0.27 µM

- IC50 [18]: 92 µM
Compound: O=C(O)C[C@H]1CNC(=S)c2cc(Br)c(Br)n21

- IC50 [19]: 0.007 µM
Compound: C[C@@H](NC(=O)c1ccc(F)cc1)c1ccc2c(c1)CCN2C(=O)C1CCOCC1 [LY-3381916]

Compound: c1ccc2c(c1)[nH]c1cnccc12 [NORHARMANE]
- Ki [20]: 180 µM

- DC50 [21]: 2.84 µM
Compound: O=C1CCC(N2C(=O)c3cccc(NCCOCCOCCOCCOCCOCCOCCOCCNCCNc4nonc4/C(=N/O)Nc4ccc(F)c(Br)c4)c3C2=O)C(=O)N1 (stereo not drawn)
- CC50 at 48 h [22]: 37.4 µM

- IC50 [23]: 0.84 µM
Compound: N#Cc1ccc(C(F)(F)F)c(SCC(=O)Nc2ccc(F)c(Cl)c2)n1

- IC50 [24]: 11.4 µM
Compound: Cc1c(C)n(CC(O)CNc2ccccc2)c2ccccc12 (stereo not drawn)
